Source: patent US20240168030A1, “DIRECT FLUORESCENT GLYCAN LABELING” (BIO-TECHNE CORPORATION, priority 2019, published 2024)

Columns and labels:
Type in all cases: biochemical
[1] = target: T1, FUT9 (Homo sapiens, UniProt Q9Y231); assay: Fluorescent labeling with fluorophore-conjugated fucose by FUT9; design: key to Tolerance of the fluorophore by FUT9: +++: indicated by number of + signs; ++: indicated by number of + signs; indicated by number of + signs; conditions: for Tolerance of the fluorophore by FUT9: fluorophore-conjugated fucose donor, acceptor GlcNAc of lactosamine, FIG. 9
T1 construct: purchased Bio-Techne (Minneapolis, MN)
T1 sequence (Q9Y231 1-359): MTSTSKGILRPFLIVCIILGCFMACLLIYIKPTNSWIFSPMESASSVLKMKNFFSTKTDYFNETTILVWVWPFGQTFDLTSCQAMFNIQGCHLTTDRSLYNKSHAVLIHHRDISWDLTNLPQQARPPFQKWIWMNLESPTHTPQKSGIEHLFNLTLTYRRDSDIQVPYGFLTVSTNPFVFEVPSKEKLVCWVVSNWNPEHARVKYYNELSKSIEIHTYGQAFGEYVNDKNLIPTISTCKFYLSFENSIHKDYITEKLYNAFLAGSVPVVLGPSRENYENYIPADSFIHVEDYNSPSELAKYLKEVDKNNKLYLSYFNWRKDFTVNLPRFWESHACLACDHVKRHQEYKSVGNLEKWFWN
Experimental: (§1) FIG. 9A-FIG. 9B show exemplary results of probing substrate glycans of various fucosyltransferases on fetuin and asialofetuin. FIG. 9A. Probing substrate glycans of fucosyltransferases with guanosine 5′-diphosphate activated Cy5 conjugated fucose (GDP-Cy5-Fuc). […] FUT9 labeled itself (indicated by an arrow in the gel). FIG. 9B. Tolerance of Alexa-Fluor®555 (555), Alexa-Fluor®488 (488), and Cy5 by the indicated fucosyltransferases. All reactions were incubated at 37° C. for 30 minutes and then separated on SDS-PAGE and imaged with silver staining (upper panels) and fluorescent imager (lower panels). M, molecular marker.
FIG. 10A-FIG. 10D show exemplary results of probing core-6 fucosylation on antibodies by FUT8 incorporation of fluorophores. FIG. 10A. Results of probing substrate glycans of FUT8 (F8) and FUT9 (F9) on Cantuzumab, an anti-Muc1 therapeutic antibody, and NIST reference mAb 8671 using guanosine 5′-diphosphate activated Alexa-Fluor®555 conjugated fucose (GDP-AF555-Fuc) (555), GDP-Cy5-fucose (Cy5), and guanosine 5′-diphosphate activated Alexa-Fluor®488 conjugated fucose (GDP-AF488-Fuc) (488) as donor substrates. Cantuzumab was expressed in FUT8 knockout cells and is devoid of core-6 fucose. Molecular marker (MM) is a prestained Western molecular marker (Bio-Rad Laboratories, Hercules, CA). […] The product of each reaction was separated using SDS-PAGE and imaged with trichloroethanol (TCE) staining (upper panel) and fluorescent imager (lower panel). Labeling on the light chains of the antibodies by Alexa-Fluor®555 is likely the result of non-specific staining due to the use of unpurified GDP-AF555-Fuc that contained free Alexa-Fluor®555. FIG. 10B. […] FIG. 10C. […] FIG. 10D. Schematics of the glycan structures analyzed in FIG. 10B and FIG. 10C.
Mouse IgG (R&D Systems, Minneapolis, MN) was digested with Endo S thoroughly and labeled with 0.3 μg of FUT9 and 0.2 nmol of GDP-Cy5-Fuc in 30 μl at 37° C. for the indicated time points. The glycans were also pretreated with B4GalT2 for 5 minutes at 37° C. and then labeled in the same way. The reactions were separated on 15% SDS PAGE. B4GalT2 pretreatment converted all G1′ to G2′. Maximal labeling on G1′ and G2′ were achieved around 30 minutes. […] The heavy chain (HC) and light chain (LC) were visible in the TCE image. M, Western blot marker (Bio-Rad Laboratories, Hercules, CA).
(§2) For a typical labeling reaction, 1 μg to 5 μg target protein was mixed with 0.2 nmol GDP-f-Fuc and 0.2 μg of a fucosyltransferase in 30 μL buffer of 25 mM Tris pH 7.5, 10 mM MnCl2. The mixture was incubated at 37° C. for 30 minutes. The reaction was then separated by sodium dodecyl sulfate—polyacrylamide gel electrophoresis (SDS-PAGE) and the gel was directly imaged using a fluorescent imager FluorChem M ProteinSimple, Bio-Techne, Minneapolis, MN), followed by imaging with traditional protein imaging methods such as silver staining or trichloroethanol (TCE) staining.
(§3) The four enzymes tolerated the three fluorophores to different levels.

[2] = target: T2, FUT6 (Homo sapiens, UniProt P51993); assay: Fluorescent labeling with fluorophore-conjugated fucose by FUT6; design: key: +++: indicated by number of + signs; ++: indicated by number of + signs; indicated by number of + signs; conditions: fluorophore-conjugated fucose donor; acceptor GlcNAc of lactosamine, sialylation on terminal Gal is flexible; FIG. 9
T2 sequence (P51993 1-359): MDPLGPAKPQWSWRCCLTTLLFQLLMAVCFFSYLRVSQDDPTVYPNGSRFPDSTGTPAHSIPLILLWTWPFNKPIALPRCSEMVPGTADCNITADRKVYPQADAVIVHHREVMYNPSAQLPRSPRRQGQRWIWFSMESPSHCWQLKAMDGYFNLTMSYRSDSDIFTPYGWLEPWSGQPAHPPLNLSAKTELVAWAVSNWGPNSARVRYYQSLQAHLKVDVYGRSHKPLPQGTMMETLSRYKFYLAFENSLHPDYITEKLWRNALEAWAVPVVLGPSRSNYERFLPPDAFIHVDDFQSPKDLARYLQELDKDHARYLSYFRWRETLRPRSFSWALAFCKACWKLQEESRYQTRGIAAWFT
Experimental: as §1, §2, §3

[3] = target: T3, FUT7 (Homo sapiens, UniProt Q11130); assay: Fluorescent labeling with fluorophore-conjugated fucose by FUT7; design: key to Tolerance of the fluorophore by FUT7: +++: indicated by number of + signs; ++: indicated by number of + signs; indicated by number of + signs; conditions: for Tolerance of the fluorophore by FUT7: fluorophore-conjugated fucose donor, acceptor GlcNAc of sialylactosamine, FIG. 9
T3 sequence (Q11130 1-342): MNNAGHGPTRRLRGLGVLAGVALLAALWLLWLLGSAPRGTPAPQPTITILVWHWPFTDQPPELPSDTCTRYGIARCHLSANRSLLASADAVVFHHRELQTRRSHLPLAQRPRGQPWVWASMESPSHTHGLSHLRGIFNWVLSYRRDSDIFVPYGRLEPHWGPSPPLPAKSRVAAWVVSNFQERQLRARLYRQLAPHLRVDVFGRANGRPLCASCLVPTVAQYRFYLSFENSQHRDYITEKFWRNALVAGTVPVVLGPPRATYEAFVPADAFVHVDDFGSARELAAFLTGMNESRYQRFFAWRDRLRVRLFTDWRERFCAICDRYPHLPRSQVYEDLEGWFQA
Experimental: as §1, §2, §3

[4] = among Cy5-, AlexaFluor® 488-, and AlexaFluor® 555-conjugated fucoses, FIG. 9B

Substance	Tolerance of the fluorophore by FUT9 [1]	Tolerance of the fluorophore by FUT6 [2]	Fluorophore preference of FUT7 [3, 4]	Tolerance of the fluorophore by FUT7 [3]	Fluorophore preference of FUT9 [1, 4]
guanosine 5′-diphosphate activated Alexa-Fluor®488 conjugated fucose [GDP-AF488-Fuc]	+++	++	preferred	++	–
guanosine 5′-diphosphate activated Alexa-Fluor®555 conjugated fucose [GDP-AF555-Fuc]	+++	++	–	+	preferred
